For experiment [1], the target named is HA-EGFP-Plk1 (Plk1 PBD) in mitotic 293A cell lysates (Homo sapiens, UniProt P53350). Briefly: ELISA-based PBD-binding inhibition assay. To be noted: relative comparison; oxime libraries tested as crude reaction mixtures. (In general: An ELISA detects its analyte on a solid surface through an enzyme-linked reagent.)
Experiment [2] concerns the target Flag-Plk2 (K108M) (Mus musculus, UniProt P53351, K108M). Briefly: Peptide pull-down assay from mitotic 293T cell lysates, Plk2. To be noted: bead-immobilized peptide, anti-Flag immunoblot.

Where a SMILES comes first, the peptide text is derived from it. Where no end group is shown, it is not given here. [ ]: non-standard residue; d: D form. The star is where a group is joined. pT = C[C@@H](OP(=O)(O)O)[C@H](N)C(=O)O; Hyp = O=C(O)[C@@H]1C[C@@H](O)CN1; Butyl(4-Ph) = c1ccc(CCCC*)cc1

Chain of Flag-Plk2 (K108M) (P53351 whole entry K108M): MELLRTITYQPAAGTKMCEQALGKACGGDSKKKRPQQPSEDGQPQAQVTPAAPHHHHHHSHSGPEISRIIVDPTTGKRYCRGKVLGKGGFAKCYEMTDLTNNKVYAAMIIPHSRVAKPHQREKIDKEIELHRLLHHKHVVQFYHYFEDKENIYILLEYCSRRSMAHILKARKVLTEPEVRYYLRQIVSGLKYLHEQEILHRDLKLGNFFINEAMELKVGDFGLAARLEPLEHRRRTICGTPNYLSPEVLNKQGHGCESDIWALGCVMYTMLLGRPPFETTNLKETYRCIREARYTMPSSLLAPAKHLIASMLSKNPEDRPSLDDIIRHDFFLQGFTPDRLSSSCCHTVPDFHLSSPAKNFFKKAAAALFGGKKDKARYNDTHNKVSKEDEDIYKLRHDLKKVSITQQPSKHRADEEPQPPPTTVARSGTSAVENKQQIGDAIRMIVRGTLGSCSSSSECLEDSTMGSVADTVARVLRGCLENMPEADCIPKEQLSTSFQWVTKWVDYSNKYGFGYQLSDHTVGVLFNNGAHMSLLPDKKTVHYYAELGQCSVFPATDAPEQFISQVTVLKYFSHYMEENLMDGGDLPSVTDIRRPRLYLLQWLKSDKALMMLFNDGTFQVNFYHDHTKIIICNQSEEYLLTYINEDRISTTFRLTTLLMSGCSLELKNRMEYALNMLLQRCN
Chain of HA-EGFP-Plk1 (Plk1 PBD) in mitotic 293A cell lysates (P53350 whole entry): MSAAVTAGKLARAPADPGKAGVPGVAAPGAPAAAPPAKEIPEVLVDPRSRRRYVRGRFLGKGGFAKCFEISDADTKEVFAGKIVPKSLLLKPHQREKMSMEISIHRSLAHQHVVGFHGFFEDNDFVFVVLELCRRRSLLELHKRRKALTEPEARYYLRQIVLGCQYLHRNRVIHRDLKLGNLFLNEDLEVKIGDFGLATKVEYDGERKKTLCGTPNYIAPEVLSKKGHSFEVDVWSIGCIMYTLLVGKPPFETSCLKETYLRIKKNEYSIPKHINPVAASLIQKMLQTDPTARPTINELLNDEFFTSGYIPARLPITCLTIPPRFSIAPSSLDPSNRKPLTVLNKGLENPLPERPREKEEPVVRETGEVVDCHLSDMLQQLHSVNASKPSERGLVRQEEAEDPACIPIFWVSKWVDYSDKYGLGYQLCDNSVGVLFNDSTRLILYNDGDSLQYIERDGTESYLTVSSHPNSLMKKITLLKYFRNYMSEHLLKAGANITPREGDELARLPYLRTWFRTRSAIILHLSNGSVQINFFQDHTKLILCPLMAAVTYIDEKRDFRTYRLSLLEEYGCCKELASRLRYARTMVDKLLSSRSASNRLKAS

Regarding “8(S4A): variant of 8 with the serine residue replaced by alanine (P(Butyl(4-Ph))LHA[pT])”, the “relative binding affinity in ELISA-based Plk1 inhibition assay” value in experiment [1] is listed as “significant loss of affinity”.

Regarding `CC(=O)N1C[C@H](OCCCCc2ccccc2)C[C@H]1C(=O)N[C@@H](CC(C)C)C(=O)N[C@@H](Cc1c[nH]cn1)C(=O)N[C@@H](CO)C(=O)N[C@H](C(N)=O)[C@@H](C)OP(=O)(O)O` [compound 7], the “band for binding to Plk2 in pull-down” value in experiment [2] is listed as “faint band”; in experiment [2] (listed as 7*), “not seen”.

Take `CC(=O)N1C[C@H](OCCCCc2ccccc2)C[C@H]1C(=O)N[C@@H](CC(C)C)C(=O)N[C@@H](Cc1c[nH]cn1)C(=O)N[C@@H](C)C(=O)N[C@H](C(N)=O)[C@@H](C)OP(=O)(O)O` [7(S4A)] (Ac-[Hyp](Butyl(4-Ph))LHA[pT]-NH2; N-terminus and C-terminus assumed): the “relative binding affinity in ELISA-based Plk1 inhibition assay” value in experiment [1] is listed as “significant loss of affinity”.
